Earlier results on one compound are cited in patent US20250367122A1, “PHARMACEUTICAL COMPOSITION CONTAINING 1-{2-[(3S,4R)-1-{[(3R,4R)-1-CYCLOPENTYL-3-FLUORO-4-(4-METHOXYPHENYL)PYRROLIDIN-3-YL]CARBONYL}-4-(METHOXYMETHYL)PYRROLIDIN-3-YL]-5-(TRIFLUOROMETHYL)PHENYL}PIPERIDINE-4-CARBOXYLIC ACID OR PHARMACEUTICALLY ACCEPTABLE SALT OR CO-CRYSTAL THEREOF” (MITSUBISHI TANABE PHARMA CORPORATION, priority 2022, published 2025).

The subject of this data set is melanocortin receptor (MCR). Conditions: as described in Patent Document 1.

Regarding `COC[C@H]1CN(C(=O)[C@]2(F)CN(C3CCCC3)C[C@H]2c2ccc(OC)cc2)C[C@@H]1c1ccc(C(F)(F)F)cc1N1CCC(C(=O)O)CC1` [Compound A, 1-{2-[(3S,4R)-1-{[(3R,4R)-1-cyclopentyl-3-fluoro-4-(4-methoxyphenyl)pyrrolidin-3-yl]carbonyl}-4-(methoxymethyl)pyrrolidin-3-yl]-5-(trifluoromethyl)phenyl}piperidine-4-carboxylic acid], the MCR activation effect result is on record as “excellent”.
